Reference: paper PMC11417675, “Systematic Evaluation of Tyrosine Kinase Inhibitors as OATP1B1 Substrates Using a Competitive Counterflow Screen” (Cancer Research Communications, 2024)
Read-outs that look alike come from different tables or passages of the source. Each block holds one molecule with its values, some of them ahead of it.

Tests used:
OATP1B1 [1] = molecular target: T1, OATP1B1 (Homo sapiens, UniProt Q9Y6L6); test: Competitive counterflow (CCF) assay, efflux of preloaded [3H]-EβG in OATP1B1-overexpressing HEK293 cells; conditions: for efflux of preloaded radiolabeled EβG induced by control substrates: 100 μmol/L, 30 min, after 1 h preload with 0.01 μmol/L [3H]-EβG; for hit in CCF assay (efflux >50% relative to EβG): at all three tested concentrations (1, 10, 100 μmol/L)
T1 sequence (Q9Y6L6 1-691): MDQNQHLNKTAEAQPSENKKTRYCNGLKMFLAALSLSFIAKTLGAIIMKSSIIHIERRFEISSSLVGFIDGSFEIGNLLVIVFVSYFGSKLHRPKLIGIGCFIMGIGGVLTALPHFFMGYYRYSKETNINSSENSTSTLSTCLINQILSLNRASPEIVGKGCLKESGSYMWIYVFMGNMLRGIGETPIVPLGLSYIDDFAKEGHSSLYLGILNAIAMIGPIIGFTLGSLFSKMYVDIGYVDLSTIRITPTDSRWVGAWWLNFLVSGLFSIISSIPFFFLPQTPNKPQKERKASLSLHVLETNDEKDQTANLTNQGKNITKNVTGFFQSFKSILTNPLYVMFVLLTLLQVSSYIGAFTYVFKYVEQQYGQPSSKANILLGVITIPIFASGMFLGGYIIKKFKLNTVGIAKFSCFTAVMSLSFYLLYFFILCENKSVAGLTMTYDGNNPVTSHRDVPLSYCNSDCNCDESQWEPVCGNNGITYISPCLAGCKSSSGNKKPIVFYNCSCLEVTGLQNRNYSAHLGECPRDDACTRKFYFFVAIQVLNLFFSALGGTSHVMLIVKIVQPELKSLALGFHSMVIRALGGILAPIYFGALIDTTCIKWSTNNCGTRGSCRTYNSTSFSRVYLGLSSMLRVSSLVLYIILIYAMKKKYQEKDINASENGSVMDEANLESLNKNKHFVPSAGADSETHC
Description: Cellular accumulation assays were performed in human embryonic kidney cells (HEK293; RRID: CVCL_0045) that were genetically engineered to overexpress human OATP1B1 ([23]–[25]). Cell lines were authenticated by Applied Biosystems AmpFISTR Identifiler testing with PCR amplification. […] All cells were used within passage 30 and verified to be Mycoplasma-free using the MycoAlert Mycoplasma Detection Kit (Lonza). At 80% to 90% confluency, cells were seeded on poly-D-lysine–coated 96-well plates 24 hours prior to the assay (2,500 cells/well), and expression of OATP1B1 was induced with 1 μg/mL doxycycline in phenol red–free DMEM.
The CCF assay uses OATP1B1-overexpressing HEK293 cells seeded and cultured as described above. During the study, cells were preincubated at room temperature (∼ 20°C) with 0.01 μmol/L EβG in prewarmed serum-free and phenol red–free DMEM for 1 hour. Following preincubation, each well was spiked with 1 μL of a stock solution containing 0.1, 1, or 10 mmol/L of positive control (EβG), negative control (glucose), test compound dissolved in Dimethylsulfoxide (DMSO), or DMSO only as a vehicle control. Following a 30-minute after incubation with a test compound, the assay was stopped by three consecutive washes with PBS at 4°C. Finally, cells were solubilized with 150 μL of 1% Triton X-100 in PBS for 2 hours at room temperature under constant agitation. A volume of 100 μL of cell lysate was transferred to clear-bottom 96-well isoplates, 200 μL of MicroScint-PS (PerkinElmer) scintillation fluid was added to each sample-containing well, and the plate was subsequently vortex-mixed for 30 seconds. Total radioactivity was determined on a MicroBeta microplate scintillation counter (PerkinElmer), and the resulting counts were then normalized to total protein as determined using a Pierce protein assay (Thermo Fisher Scientific).

OATP1B1 [2] = conditions: cited from earlier work; for reported to inhibit OATP1B1: literature reports, ref not given
OATP2B1 = conditions: General Comments; ref PMID#25165131; cited from earlier work
OATP1A2 = conditions: General Comments; ref PMID#25165131; cited from earlier work
OCTN2 = test system: OCTN2; design: method as in PMID#25165131; conditions: General Comments; ref PMID#25165131; cited from earlier work
VEGFR2 = molecular target: T2, VEGFR2 (Homo sapiens, UniProt P35968); test: IP-based VEGFR kinase assay (ADP-Glo) in OATP1B1-overexpressing vs vector control HEK293 cells; format: cell-based; conditions: 10 μmol/L, 1 h; OATP1B1-overexpressing cells compared with control cells not overexpressing OATP1B1
T2 construct: expressed in transfected cells; host or cells: HEK293 (OATP1B1-overexpressing or empty vector)
T2 sequence (P35968 20-1356, species assumed): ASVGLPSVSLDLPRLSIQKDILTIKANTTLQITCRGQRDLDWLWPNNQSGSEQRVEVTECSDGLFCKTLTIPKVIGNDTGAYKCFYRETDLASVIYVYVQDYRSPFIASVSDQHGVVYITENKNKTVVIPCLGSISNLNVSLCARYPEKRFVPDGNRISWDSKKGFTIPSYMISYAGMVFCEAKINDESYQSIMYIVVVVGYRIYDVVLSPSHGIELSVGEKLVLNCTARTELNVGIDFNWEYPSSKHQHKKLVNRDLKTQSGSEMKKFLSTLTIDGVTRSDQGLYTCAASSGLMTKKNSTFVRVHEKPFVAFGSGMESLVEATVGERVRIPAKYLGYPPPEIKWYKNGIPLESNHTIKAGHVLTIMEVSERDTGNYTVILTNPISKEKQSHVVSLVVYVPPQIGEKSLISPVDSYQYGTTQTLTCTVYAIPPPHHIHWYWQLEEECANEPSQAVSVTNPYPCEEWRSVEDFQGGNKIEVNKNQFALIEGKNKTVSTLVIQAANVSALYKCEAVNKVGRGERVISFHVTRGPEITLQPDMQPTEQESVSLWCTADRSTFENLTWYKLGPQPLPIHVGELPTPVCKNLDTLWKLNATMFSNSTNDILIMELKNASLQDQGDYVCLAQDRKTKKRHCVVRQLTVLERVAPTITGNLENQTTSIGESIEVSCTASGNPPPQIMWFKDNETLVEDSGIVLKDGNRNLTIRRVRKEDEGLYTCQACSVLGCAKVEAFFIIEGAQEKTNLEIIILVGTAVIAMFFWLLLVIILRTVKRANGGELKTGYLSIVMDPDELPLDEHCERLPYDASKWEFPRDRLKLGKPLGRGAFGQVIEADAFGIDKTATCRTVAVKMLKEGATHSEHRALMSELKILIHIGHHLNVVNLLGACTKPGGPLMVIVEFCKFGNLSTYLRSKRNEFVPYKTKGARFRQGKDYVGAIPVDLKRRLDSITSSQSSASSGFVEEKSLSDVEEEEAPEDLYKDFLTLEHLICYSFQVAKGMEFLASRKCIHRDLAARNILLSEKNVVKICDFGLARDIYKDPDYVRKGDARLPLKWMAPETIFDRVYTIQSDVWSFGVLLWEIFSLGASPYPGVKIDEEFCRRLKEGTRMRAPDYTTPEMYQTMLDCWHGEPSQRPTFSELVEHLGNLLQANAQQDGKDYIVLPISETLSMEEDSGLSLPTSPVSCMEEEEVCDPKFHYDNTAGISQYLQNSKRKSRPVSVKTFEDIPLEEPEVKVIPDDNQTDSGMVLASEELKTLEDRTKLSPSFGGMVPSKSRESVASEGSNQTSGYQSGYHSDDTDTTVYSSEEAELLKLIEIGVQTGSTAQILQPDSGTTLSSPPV

SMILES: C[C@]12CC[C@@H]3c4ccc(O)cc4CC[C@H]3[C@@H]1CC[C@@H]2O[C@@H]1O[C@H](C(=O)O)[C@@H](O)[C@H](O)[C@H]1O [EβG, estradiol [6,7-^3H(N)]-17β-D-glucuronide]
efflux of preloaded radiolabeled EβG induced by control substrates (OATP1B1 [1]): induced significant efflux

SMILES: CO[C@H]1/C=C/O[C@@]2(C)Oc3c(C)c(O)c4c(O)c(c(/C=N/N5CCN(C)CC5)c(O)c4c3C2=O)NC(=O)/C(C)=C\C=C\[C@H](C)[C@H](O)[C@@H](C)[C@@H](O)[C@@H](C)[C@H](OC(C)=O)[C@@H]1C [rifampin]
efflux of preloaded radiolabeled EβG induced by control substrates (OATP1B1 [1]): induced significant efflux

SMILES: O=C(c1ccc(F)c(F)c1Nc1ccc(I)cc1F)N1CC(O)([C@@H]2CCCCN2)C1 [Cobimetinib]
pattern of efflux vs concentration in CCF assay (OATP1B1 [1]; 1, 10 and 100 μmol/L): clearly dependent on concentration

SMILES: COC(=O)N[C@@H](C)CNc1nccc(-c2cn(C(C)C)nc2-c2cc(Cl)cc(NS(C)(=O)=O)c2F)n1 [Encorafenib]
reported to inhibit OATP1B1 (OATP1B1 [2]): reported to inhibit OATP1B1

SMILES: COc1cc2nccc(Oc3ccc(NC(=O)C4(C(=O)Nc5ccc(F)cc5)CC4)cc3)c2cc1OC [Cabozantinib]
pattern of efflux vs concentration in CCF assay (OATP1B1 [1]; 1, 10 and 100 μmol/L): solely at lower concentrations

SMILES: CCOc1cc2ncc(C#N)c(Nc3ccc(OCc4ccccn4)c(Cl)c3)c2cc1NC(=O)/C=C/CN(C)C [Neratinib]
IC50 (OATP2B1): 2680 nM
IC50 (OATP1A2): 390 nM
OCTN2 inhibition (in words) (OCTN2): No inhibition of OATP1B1 and OCTN2 was observed at concentrations up to 10 µM

SMILES: Cc1ccc(C(=O)Nc2ccc(CN3CCN(C)CC3)c(C(F)(F)F)c2)cc1C#Cc1cnc2cccnn12 [Ponatinib]
Interaction: Substrate OATP1B1 (OATP1B1 [2]): N
OATP1B1 inhibition (in words) (OATP1B1 [2]): Inhibits P-gp( IC50 =0.49uM), BCRP (IC50 = 0.013 µM). Did not inhibit OATP1B1, OATP1B3, OCT1, OCT2, OAT1, or OAT3. Not a substrate of OATP1B1, OATP1B3, or OCT1.
OATP1B1 substrate (in words) (OATP1B1 [2]): Inhibits P-gp( IC50 =0.49uM), BCRP (IC50 = 0.013 µM). Did not inhibit OATP1B1, OATP1B3, OCT1, OCT2, OAT1, or OAT3. Not a substrate of OATP1B1, OATP1B3, or OCT1.

SMILES: CC(C)(C)c1nc(-c2cccc(NS(=O)(=O)c3c(F)cccc3F)c2F)c(-c2ccnc(N)n2)s1 [Dabrafenib]
pattern of efflux vs concentration in CCF assay (OATP1B1 [1]; 1, 10 and 100 μmol/L): solely at lower concentrations

SMILES: Cc1cc(Nc2ncc(Cl)c(Nc3ccccc3S(=O)(=O)C(C)C)n2)c(OC(C)C)cc1C1CCNCC1 [Ceritinib]
pattern of efflux vs concentration in CCF assay (OATP1B1 [1]; 1, 10 and 100 μmol/L): clearly dependent on concentration

SMILES: Cc1nc(Nc2ncc(C(=O)Nc3c(C)cccc3Cl)s2)cc(N2CCN(CCO)CC2)n1 [Dasatinib]
pattern of efflux vs concentration in CCF assay (OATP1B1 [1]; 1, 10 and 100 μmol/L): solely at lower concentrations

SMILES: CNC(=O)c1ccccc1Sc1ccc2c(/C=C/c3ccccn3)n[nH]c2c1 [Axitinib]
previously claimed to be substrates of OATP1B1 (OATP1B1 [2]): substrates of OATP1B1
pattern of efflux vs concentration in CCF assay (OATP1B1 [1]; 1, 10 and 100 μmol/L): solely at lower concentrations

SMILES: COc1cc(Nc2ncc(F)c(Nc3ccc4c(n3)N(COP(=O)(O)O)C(=O)C(C)(C)O4)n2)cc(OC)c1OC [Fostamatinib]
hit in CCF assay (efflux >50% relative to EβG) (OATP1B1 [1]): hits

SMILES: C[C@]12CC[C@@H]3c4ccc(OS(=O)(=O)O)cc4CC[C@H]3[C@@H]1CCC2=O [E3S, estrone-3-sulfate]
efflux of preloaded radiolabeled EβG induced by control substrates (OATP1B1 [1]): induced significant efflux

SMILES: C[C@@H](Oc1cc(-c2cnn(C3CCNCC3)c2)cnc1N)c1c(Cl)ccc(F)c1Cl [Crizotinib]
previously claimed to be substrates of OATP1B1 (OATP1B1 [2]): substrates of OATP1B1
pattern of efflux vs concentration in CCF assay (OATP1B1 [1]; 1, 10 and 100 μmol/L): clearly dependent on concentration

More lines, main results first:

pattern of efflux vs concentration in CCF assay (OATP1B1 [1]; 1, 10 and 100 μmol/L): solely at lower concentrations
SMILES: Cn1cnc2c(F)c(Nc3ccc(Br)cc3Cl)c(C(=O)NOCCO)cc21 [Selumetinib]

pattern of efflux vs concentration in CCF assay (OATP1B1 [1]): clearly dependent on concentration
SMILES: CCN(CC)CCNC(=O)c1c(C)[nH]c(/C=C2\C(=O)Nc3ccc(F)cc32)c1C [Sunitinib]

hit in CCF assay (efflux >50% relative to EβG) (OATP1B1 [1]): hits
SMILES: CNC(=O)c1cc(Oc2ccc(NC(=O)Nc3ccc(Cl)c(C(F)(F)F)c3)cc2)ccn1 [Sorafenib]
previously claimed to be substrates of OATP1B1 (OATP1B1 [2]): substrates of OATP1B1

pattern of efflux vs concentration in CCF assay (OATP1B1 [1]; 1, 10 and 100 μmol/L): solely at lower concentrations
SMILES: CS(=O)(=O)CCNCc1ccc(-c2ccc3ncnc(Nc4ccc(OCc5cccc(F)c5)c(Cl)c4)c3c2)o1 [Lapatinib]

VEGFR kinase activity after pazopanib (VEGFR2): markedly reduced kinase activity
SMILES: Cc1ccc(Nc2nccc(N(C)c3ccc4c(C)n(C)nc4c3)n2)cc1S(N)(=O)=O [Pazopanib]
previously claimed to be substrates of OATP1B1 (OATP1B1 [2]): substrates of OATP1B1
reported to inhibit OATP1B1 (OATP1B1 [2]): reported to inhibit OATP1B1

pattern of efflux vs concentration in CCF assay (OATP1B1 [1]; 1, 10 and 100 μmol/L): solely at lower concentrations
SMILES: Cc1cc(Nc2ncnc3ccc(NC4=NC(C)(C)CO4)cc23)ccc1Oc1ccn2ncnc2c1 [Tucatinib]

pattern of efflux vs concentration in CCF assay (OATP1B1 [1]; 1, 10 and 100 μmol/L): clearly dependent on concentration
SMILES: COC(=O)c1ccc2c(c1)NC(=O)/C2=C(\Nc1ccc(N(C)C(=O)CN2CCN(C)CC2)cc1)c1ccccc1 [Nintedanib]

efflux of preloaded radiolabeled EβG induced by control substrates (OATP1B1 [1]): induced significant efflux
SMILES: CC[C@H](C)C(=O)O[C@H]1C[C@H](O)C=C2C=C[C@H](C)[C@H](CC[C@@H](O)C[C@@H](O)CC(=O)O)[C@H]21 [pravastatin]

efflux of preloaded radiolabeled EβG induced by control substrates (OATP1B1 [1]): failed to induce efflux
SMILES: OC[C@H]1OC(O)[C@H](O)[C@@H](O)[C@@H]1O (some centres unmarked) [glucose]

pattern of efflux vs concentration in CCF assay (OATP1B1 [1]; 1, 10 and 100 μmol/L): clearly dependent on concentration
SMILES: C=CC(=O)Nc1cc(Nc2nccc(-c3cn(C)c4ccccc34)n2)c(OC)cc1N(C)CCN(C)C [Osimertinib]

pattern of efflux vs concentration in CCF assay (OATP1B1 [1]; 1, 10 and 100 μmol/L): solely at lower concentrations
SMILES: FC(F)(F)c1ccc(CNc2ccc(Cc3c[nH]c4ncc(Cl)cc34)cn2)cn1 [Pexidartinib]

pattern of efflux vs concentration in CCF assay (OATP1B1 [1]; 1, 10 and 100 μmol/L): solely at lower concentrations
SMILES: CO[C@]1(C(=O)N[C@@H](C)c2ccc(-n3cc(F)cn3)nc2)CC[C@H](c2nc(C)cc(Nc3cc(C)[nH]n3)n2)CC1 [Pralsetinib]
reported to inhibit OATP1B1 (OATP1B1 [2]): reported to inhibit OATP1B1

pattern of efflux vs concentration in CCF assay (OATP1B1 [1]; 1, 10 and 100 μmol/L): solely at lower concentrations
SMILES: Cc1cn(-c2cc(NC(=O)c3ccc(C)c(Nc4nccc(-c5cccnc5)n4)c3)cc(C(F)(F)F)c2)cn1 [Nilotinib]

pattern of efflux vs concentration in CCF assay (OATP1B1 [1]; 1, 10 and 100 μmol/L): clearly dependent on concentration
SMILES: COc1cc2c(Nc3ccc(Br)cc3F)ncnc2cc1OCC1CCN(C)CC1 [Vandetanib]
